How the values were obtained:
Assay in all cases: relative viability (nuclei count vs DMSO), 5 days (fraction); higher = more cells survive
[1] = compound: O=c1ncccn1[C@@H]1O[C@H](CO)[C@@H](O)[C@H]1O [Zebularine] + O=C(c1cc(Cc2n[nH]c(=O)c3ccccc23)ccc1F)N1CCN(C(=O)C2CC2)CC1 [Olaparib] (partner 8 µM)
In short: (§1)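 Cells from lung cancer lines were seeded into 1536-well plates and, one day later, dosed by pin tool. Treatments were either a single drug or a fixed dose of an anchor drug with five library-drug doses (not always all listed) in √10 steps. After 5 days, nuclei were stained in a one-step fixation (final 0.05% Triton X-100, 1% formaldehyde, 1 ug/ml Hoechst) and counted on 4× images, and relative viability is the treated-to-vehicle nuclei ratio, as the median of duplicate plates.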

[2] = compound: CC(C)CCN1c2nc(Nc3cc(F)c(O)c(F)c3)ncc2N(C)C(=O)C1C [BI-D1870] + CC(=O)c1c(C)c2cnc(Nc3ccc(N4CCNCC4)cn3)nc2n(C2CCCC2)c1=O [Palbociclib] (partner 0.5 µM)
In short: as §1

[3] = compound: O=c1ncccn1[C@@H]1O[C@H](CO)[C@@H](O)[C@H]1O [Zebularine] + CS(=O)(=O)N1CCN(Cc2cc3nc(-c4cccc5[nH]ncc45)nc(N4CCOCC4)c3s2)CC1 [Pictilisib] (partner 1 µM)
In short: as §1

[4] = compound: O=c1ncccn1[C@@H]1O[C@H](CO)[C@@H](O)[C@H]1O [Zebularine] + CC(=O)c1c(C)c2cnc(Nc3ccc(N4CCNCC4)cn3)nc2n(C2CCCC2)c1=O [Palbociclib] (partner 0.5 µM)
In short: as §1

Cell Line	relative viability ([1]; first compound 1 µM)	relative viability ([1]; first compound 3.162 µM)	relative viability ([1]; first compound 10 µM)	relative viability ([1]; first compound 31.62 µM)	relative viability ([1]; first compound 100 µM)	relative viability ([2]; first compound 0.04 µM)	relative viability ([2]; first compound 0.1265 µM)	relative viability ([2]; first compound 0.4 µM)	relative viability ([2]; first compound 1.265 µM)	relative viability ([2]; first compound 4 µM)	relative viability ([3]; first compound 1 µM)	relative viability ([3]; first compound 3.162 µM)	relative viability ([3]; first compound 10 µM)	relative viability ([3]; first compound 31.62 µM)	relative viability ([3]; first compound 100 µM)	relative viability ([4]; first compound 1 µM)	relative viability ([4]; first compound 3.162 µM)	relative viability ([4]; first compound 10 µM)	relative viability ([4]; first compound 31.62 µM)	relative viability ([4]; first compound 100 µM)
201T	0.907	0.798	0.574	0.544	0.474	0.358	0.339	0.362	0.365	0.356	0.729	0.743	0.709	0.671	0.703	0.406	0.355	0.325	0.411	0.39
A549	0.475	0.165	0.163	0.156	0.0971	–	–	–	–	–	0.626	0.482	–	0.619	0.209	–	–	–	–	–
A-427	0.771	0.668	0.576	0.446	0.244	0.59	0.488	0.532	0.555	0.495	0.835	0.783	0.686	0.433	0.191	0.581	0.542	0.472	0.385	0.296
ABC-1	0.782	0.696	0.666	0.702	0.522	0.973	0.708	0.667	0.849	0.679	0.62	0.326	0.633	0.564	0.439	0.741	0.485	0.635	0.589	0.471
BEN	0.819	0.623	0.608	0.428	0.506	0.486	0.45	0.472	0.46	0.423	0.56	0.504	0.291	0.385	0.3	0.451	0.473	0.451	0.422	0.368
CAL-12T	0.837	0.721	0.548	0.444	0.273	0.593	0.399	0.34	0.336	0.203	0.509	0.398	–	0.482	0.364	0.474	0.423	0.409	0.557	0.353
COR-L23	0.336	0.329	0.277	0.178	0.138	0.281	0.24	0.315	0.257	0.278	0.926	0.776	0.291	0.287	0.24	0.314	0.286	0.176	0.224	0.146
COR-L 105	0.715	0.671	0.766	1.02	0.644	0.412	0.395	0.407	0.41	0.425	0.388	0.381	0.373	0.464	0.41	0.515	0.373	0.416	0.406	0.43
Calu-6	0.739	0.467	0.409	0.331	0.253	–	–	–	–	–	0.995	0.898	0.467	0.859	0.218	–	–	–	–	–
ChaGo-K-1	0.332	0.32	0.289	0.202	0.187	0.907	0.876	0.887	0.978	0.949	0.896	0.557	0.466	0.447	0.27	0.919	0.737	0.345	0.198	0.217
EBC-1	0.833	0.731	0.584	0.547	0.359	–	–	–	–	–	0.338	0.348	0.311	0.387	0.303	–	–	–	–	–
EKVX	0.952	0.813	–	0.757	0.664	0.472	0.366	0.352	0.385	0.341	0.419	0.456	–	0.487	0.401	0.692	0.398	–	0.343	0.413
EMC-BAC-2	0.559	0.477	0.364	0.526	0.488	0.555	0.505	0.511	0.544	0.483	0.536	0.562	0.493	0.606	0.546	0.545	0.507	0.431	0.6	0.539
EPLC-272H	0.955	0.774	–	0.66	0.41	0.323	0.358	0.306	0.288	0.23	0.342	–	–	0.297	0.273	0.375	–	0.326	0.324	0.344
H3255	0.624	0.597	0.502	0.577	0.513	0.335	0.311	0.325	0.335	0.321	0.458	0.518	–	0.461	0.457	0.3	0.288	0.336	0.314	0.321
HARA	0.901	0.491	0.926	0.647	0.437	0.219	0.234	0.263	0.272	0.23	0.432	0.392	–	0.606	0.35	0.242	0.279	–	0.292	0.235
HCC-15	0.864	0.652	0.465	0.371	0.307	0.701	0.64	0.722	0.746	0.681	0.826	0.424	0.536	0.666	0.249	0.887	0.757	0.521	0.506	0.3
HCC-44	0.974	0.971	0.762	0.825	0.39	0.966	0.901	0.919	1.01	0.946	0.535	0.648	0.375	0.625	0.323	0.945	0.998	1.07	1.16	0.5
HCC-78	0.76	0.652	–	0.444	0.291	0.456	0.489	0.405	0.462	0.454	0.223	0.192	0.211	0.254	0.197	0.577	0.465	0.34	0.472	0.449

Cell Line	relative viability ([1]; first compound 1 µM)	relative viability ([1]; first compound 3.162 µM)	relative viability ([1]; first compound 10 µM)	relative viability ([1]; first compound 31.62 µM)	relative viability ([1]; first compound 100 µM)	relative viability ([2]; first compound 0.04 µM)	relative viability ([2]; first compound 0.1265 µM)	relative viability ([2]; first compound 0.4 µM)	relative viability ([2]; first compound 1.265 µM)	relative viability ([2]; first compound 4 µM)	relative viability ([3]; first compound 1 µM)	relative viability ([3]; first compound 3.162 µM)	relative viability ([3]; first compound 10 µM)	relative viability ([3]; first compound 31.62 µM)	relative viability ([3]; first compound 100 µM)	relative viability ([4]; first compound 1 µM)	relative viability ([4]; first compound 3.162 µM)	relative viability ([4]; first compound 10 µM)	relative viability ([4]; first compound 31.62 µM)	relative viability ([4]; first compound 100 µM)
HCC-366	0.411	0.294	0.186	0.103	0.108	0.422	0.404	0.329	0.445	0.376	0.16	0.133	0.119	0.177	0.124	0.367	0.387	0.246	0.23	0.108
HCC-827	0.752	0.607	0.487	0.415	0.252	0.444	0.431	0.421	0.446	0.432	1.19	0.977	0.835	0.738	0.544	0.555	0.551	0.424	0.485	0.339
HOP-62	0.169	0.35	0.257	0.163	0.16	0.508	0.419	0.496	0.522	0.405	0.579	0.608	0.284	0.287	0.175	0.496	0.437	0.218	0.158	0.152
IA-LM	0.889	0.828	–	1.04	0.401	–	–	–	–	–	0.394	0.325	–	0.37	0.292	–	–	–	–	–
LC-2-ad	0.729	0.681	0.434	0.201	0.254	0.577	0.471	0.509	0.477	0.401	0.509	0.421	0.399	0.258	0.158	0.496	0.507	0.322	0.408	0.301
LCLC-97TM1	0.404	0.289	0.138	0.104	0.119	0.262	0.217	0.171	0.217	0.17	0.184	0.081	0.138	0.124	0.104	0.2	0.199	0.0967	0.102	0.111
LCLC-103H	0.839	0.829	0.597	0.632	0.637	0.475	0.471	0.439	0.409	0.379	0.564	0.603	0.513	0.612	0.553	0.49	0.45	0.482	0.505	0.473
LK-2	0.884	0.714	0.335	0.259	0.221	0.803	0.842	0.598	0.701	0.672	0.617	0.747	0.266	0.383	0.36	0.874	0.797	0.424	0.28	0.204
LOU-NH91	0.906	0.891	0.704	0.775	0.469	0.497	0.57	0.499	0.529	0.509	0.52	0.471	0.498	0.505	0.451	0.54	0.524	0.518	0.552	0.47
LU99A	0.306	0.243	0.245	0.182	0.135	0.431	0.363	0.387	0.37	0.331	0.329	0.305	0.324	0.283	0.198	0.483	0.433	0.331	0.278	0.187
LXF-289	1.06	0.995	0.549	0.31	0.275	0.577	0.583	0.598	0.641	0.558	0.908	0.769	0.792	0.687	0.294	0.641	0.66	0.573	0.395	0.233
NCI-H522	0.746	0.647	0.577	0.546	0.573	1.03	1.06	0.943	0.975	0.788	–	–	–	–	–	0.923	0.942	0.926	0.827	0.765
NCI-H596	0.7	0.746	0.713	0.591	0.547	–	–	–	–	–	0.304	0.373	0.361	0.42	0.362	–	–	–	–	–
NCI-H1299	1.06	0.893	0.852	0.805	0.447	–	–	–	–	–	0.75	0.761	0.543	0.739	0.264	–	–	–	–	–
NCI-H1563	–	–	–	–	–	–	–	–	–	–	0.645	0.607	0.636	0.674	0.706	–	–	–	–	–
NCI-H1648	0.588	0.852	0.643	0.7	0.471	0.285	0.273	–	0.308	0.259	–	–	–	–	–	0.316	0.226	0.301	0.25	0.24
NCI-H1703	0.468	0.552	0.339	0.395	0.321	–	–	–	–	–	0.267	–	–	0.265	0.239	–	–	–	–	–
NCI-H2342	0.462	0.468	0.388	0.437	0.365	0.508	0.511	0.528	0.528	0.559	–	–	–	–	–	0.508	0.498	0.5	0.526	0.47
SW 900	1.04	0.889	–	0.773	0.479	0.697	0.478	0.511	0.536	0.517	–	–	–	–	–	0.503	0.484	–	0.669	0.527

Reference: the supplement of paper PMC10307832
